Results reported in patent publication US20170304388A1, “NEW INDICATION OF CARDIOVASCULAR DRUGS FOR PREPARATION OF CANCER INHIBITION PHARMACEUTICAL COMPOSITION” (LAUNX BIOMEDICAL CO., LTD., priority 2014, published 2017).
Where a name gives a salt, the structure may show the parent alone.

Assays:
Assay type in all cases: cell-based
[1] = system: A375 (Amelanotic Melanoma); assay: Cell viability analysis (WST-1), A375; settings: Homo sapiens, A-375, 72 h, Table 3, drug 10 μM, WST-1, OD450 nm, lower viability = better inhibition, read-out: survival rate (viability) of cancer cells, A375
[2] = system: HeLa (Cervix Adenocarcinoma); assay: Cell viability analysis (WST-1), HeLa; settings: Homo sapiens, HeLa, 72 h, Table 3, drug 10 μM, WST-1, OD450 nm, read-out: survival rate (viability) of cancer cells, HeLa
[3] = system: H1650 (Lung Adenocarcinoma); assay: Cell viability analysis (WST-1), H1650; settings: Homo sapiens, NCI-H1650, 72 h, Table 3, drug 10 μM, WST-1, OD450 nm, read-out: survival rate (viability) of cancer cells, H1650
[4] = system: HepG2 (Hepatocellular Carcinoma); assay: Cell viability analysis (WST-1), HepG2; settings: Homo sapiens, HepG2, 72 h, Table 3, drug 10 μM, WST-1, OD450 nm, read-out: survival rate (viability) of cancer cells, HepG2
[5] = system: LoVo (Colorectal Adenocarcinoma); assay: Cell viability analysis (WST-1), LoVo; settings: Homo sapiens, LoVo, 72 h, Table 3, drug 10 μM, WST-1, OD450 nm, read-out: survival rate (viability) of cancer cells, LoVo
[6] = system: A549 (Lung Adenocarcinoma); assay: Cell viability analysis (WST-1), A549; settings: Homo sapiens, A549, 72 h, Table 3, drug 10 μM, WST-1, OD450 nm, read-out: survival rate (viability) of cancer cells, A549
[7] = system: AGS (Gastric Adenocarcinoma); assay: Cell viability analysis (WST-1), AGS; settings: 72 h, Table 3, drug 10 μM, WST-1, OD450 nm, read-out: survival rate (viability) of cancer cells, AGS
[8] = system: HCT116 (Colorectal Carcinoma); assay: Cell viability analysis (WST-1), HCT116; settings: Homo sapiens, HCT-116, 72 h, Table 3, drug 10 μM, WST-1, OD450 nm, read-out: survival rate (viability) of cancer cells, HCT116 (WT)
[9] = system: MCF7 (Mammary Gland, Adenocarcinoma); assay: Cell viability analysis (WST-1), MCF7; settings: Homo sapiens, MCF7, 72 h, Table 3, drug 10 μM, WST-1, OD450 nm, read-out: survival rate (viability) of cancer cells, MCF7
[10] = system: TSGH-8301 (Urinary Bladder Carcinoma); assay: Cell viability analysis (WST-1), TSGH-8301; settings: 72 h, Table 3, drug 10 μM, WST-1, OD450 nm, read-out: survival rate (viability) of cancer cells, TSGH
cancer cell lines = assay: Growth inhibitory effects on the panel of cancer cell lines; settings: drug 10 μM, 72 hours; for Numbers of inhibitory effect on cancer cell line: count of cancer cell lines inhibited; for inhibition effect on different cancer cell lines (in words): WST-1
[11] = system: PC3 (Prostate Adenocarcinoma); assay: Cell viability analysis (WST-1), PC3; settings: 72 h, Table 3, drug 10 μM, WST-1, OD450 nm, read-out: survival rate (viability) of cancer cells, PC3
[12] = system: MKN-45 (Gastric Adenocarcinoma); assay: Cell viability analysis (WST-1), MKN-45; settings: Homo sapiens, MKN-45, 72 h, Table 3, drug 10 μM, WST-1, OD450 nm, read-out: survival rate (viability) of cancer cells, MKN-45

Compound	inhibition effect on different cancer cell lines (in words) (cancer cell lines)	also measured
CC1Cc2ccccc2N1NC(=O)c1ccc(Cl)c(S(N)(=O)=O)c1 (stereo not shown) [Indapamide (Lozol), Indapamide]	significant inhibition effect	viability at 10 µM [1]: 64.8%; viability at 10 µM [2]: 67.9%; viability at 10 µM [3]: 86.7%; viability at 10 µM [4]: 84%; viability at 10 µM [5]: 92.7%; viability at 10 µM [6]: 106%; viability at 10 µM [7]: 109%; viability at 10 µM [8]: 80%; viability at 10 µM [9]: 65.5%; viability at 10 µM [10]: 85%; Numbers of inhibitory effect on cancer cell line (cancer cell lines): 0; viability at 10 µM [11]: 76.8%; viability at 10 µM [12]: 105%
CCC(NC(C)C)C(O)c1ccc(O)c(O)c1 (stereo not shown) [Isoetharine Mesylate]	significant inhibition effect	viability at 10 µM [1]: 97%; viability at 10 µM [2]: 81.6%; viability at 10 µM [3]: 91.7%; viability at 10 µM [4]: 76.5%; viability at 10 µM [5]: 100%; viability at 10 µM [6]: 76.7%; viability at 10 µM [7]: 96.6%; viability at 10 µM [8]: 96.1%; viability at 10 µM [9]: 103%; viability at 10 µM [10]: 88.3%; Numbers of inhibitory effect on cancer cell line (cancer cell lines): 0; viability at 10 µM [11]: 71.6%; viability at 10 µM [12]: 91%
CCOC(=O)C1=C[C@@H](OC(CC)CC)[C@H](NC(C)=O)[C@@H](N)C1 [Oseltamivir phosphate (Tamiflu), Oseltamivir phosphate]	significant inhibition effect	–
CCCCCCCCOc1ccccc1C(=O)Nc1ccc(C(=O)OCC[N+](C)(CC)CC)cc1 [Otilonium Bromide]	significant inhibition effect	–
C=CCOc1ccccc1OCC(O)CNC(C)C (stereo not shown) [Oxprenolol HCl]	significant inhibition effect	–
CCC(CC)[C@H](NC(C)=O)[C@@H]1[C@H](O)[C@@H](C(=O)O)C[C@H]1N=C(N)N.O.O.O [Peramivir Trihydrate]	significant inhibition effect	–
Nc1ccc(/N=N/c2ccccc2)c(N)n1 [Phenazopyridine HCl]	significant inhibition effect	–
O=C1c2ccccc2C(=O)C1c1ccccc1 [Phenindione (Rectadione), Phenindione]	significant inhibition effect	–
Cc1ccc(N(CC2=NCCN2)c2cccc(O)c2)cc1 [Phentolamine mesilate]	significant inhibition effect	–
CC(N/C(=N\C#N)Nc1ccncc1)C(C)(C)C (stereo not shown) [Pinacidil]	significant inhibition effect	–
CC(C)NCC(O)COc1cccc2[nH]ccc12 (stereo not shown) [Pindolol]	significant inhibition effect	–
C[C@]12CCC(=O)C=C1C=C[C@@H]1[C@@H]2CC[C@@]2(C)[C@H]1CC[C@@]2(O)CCC(=O)O [Potassium Canrenoate]	significant inhibition effect	–
CC(=O)Oc1cc2c(s1)CCN(C(C(=O)C1CC1)c1ccccc1F)C2 (stereo not shown) [Prasugrel (Effient), Prasugrel]	significant inhibition effect	–
CC(C)(Sc1cc(C(C)(C)C)c(O)c(C(C)(C)C)c1)Sc1cc(C(C)(C)C)c(O)c(C(C)(C)C)c1 [Probucol]	significant inhibition effect	–
CC(C)NCC(O)COc1cccc2ccccc12 (stereo not shown) [Propranolol HCl]	significant inhibition effect	–
CN(C)C(=O)Oc1ccc[n+](C)c1 [Pyridostigmine Bromide (Mestinon), Pyridostigmine Bromide]	significant inhibition effect	–
C=C[C@H]1C[N@@]2CC[C@H]1C[C@H]2[C@H](O)c1ccnc2ccc(OC)cc12 [Quinine hydrochloride dihydrate]	significant inhibition effect	–
COc1ccccc1OCC(O)CN1CCN(CC(=O)Nc2c(C)cccc2C)CC1 (stereo not shown) [Ranolazine dihydrochloride]	significant inhibition effect	–

Compound	inhibition effect on different cancer cell lines (in words) (cancer cell lines)	also measured
COC(=O)[C@H]1[C@H]2C[C@@H]3c4[nH]c5cc(OC)ccc5c4CCN3C[C@H]2C[C@@H](OC(=O)c2cc(OC)c(OC)c(OC)c2)[C@@H]1OC [Reserpine]	significant inhibition effect	–
C[C@H](Cc1cc2c(c(C(N)=O)c1)N(CCCO)CC2)NCCOc1ccccc1OCC(F)(F)F [Silodosin (Rapaflo), Silodosin]	significant inhibition effect	–
O=C(O[C@H]1CN2CCC1CC2)N1CCc2ccccc2[C@@H]1c1ccccc1 [Solifenacin succinate]	significant inhibition effect	–
CN[C@@H]1[C@H](O)[C@H](NC)[C@H]2O[C@@]3(O)C(=O)C[C@@H](C)O[C@H]3O[C@@H]2[C@H]1O [Spectinomycin hydrochloride]	significant inhibition effect	–
CCOCC(O)COc1ccc(NC(=O)CC[S+](C)C)cc1 (stereo not shown) [Suplatast tosylate]	significant inhibition effect	–
CCCc1nc2c(C)cc(-c3nc4ccccc4n3C)cc2n1Cc1ccc(-c2ccccc2C(=O)O)cc1 [Telmisartan (Micardis), Telmisartan]	significant inhibition effect	–
CS(=O)(=O)c1ccc([C@@H](O)[C@@H](CO)NC(=O)C(Cl)Cl)cc1 [Thiamphenicol (Thiophenicol), Thiamphenicol]	significant inhibition effect	–
CC(S)C(=O)NCC(=O)O (stereo not shown) [Tiopronin (Thiola), Tiopronin]	significant inhibition effect	–
Cc1cccc(Nc2ccncc2S(=O)(=O)NC(=O)NC(C)C)c1 [Torsemide (Demadex), Torsemide]	significant inhibition effect	–
O=C(O[C@H]1C[C@H]2CC[C@@H](C1)[N+]21CCCC1)C(O)(c1ccccc1)c1ccccc1 [Trospium chloride (Sanctura), Trospium chloride]	significant inhibition effect	–
CCCC(CCC)C(=O)[O-].[Na+] [Valproic acid sodium salt]	significant inhibition effect	–
CCCCC(=O)N(Cc1ccc(-c2ccccc2-c2nnn[nH]2)cc1)[C@H](C(=O)O)C(C)C [Valsartan (Diovan), Valsartan]	significant inhibition effect	–
C=C1CC[C@H](O)C/C1=C/C=C1\CCC[C@]2(C)[C@@H]([C@H](C)CCCC(C)C)CC[C@@H]12 [Vitamin D3 (Cholecalciferol), Cholecalciferol]	significant inhibition effect	–
Cc1cn([C@H]2C[C@H](N=[N+]=[N-])[C@@H](CO)O2)c(=O)[nH]c1=O [Zidovudine (Retrovir), Zidovudine]	significant inhibition effect	–
COCCc1ccc(OCC(O)CNC(C)C)cc1 (stereo not shown) [toprolol tartrate]	significant inhibition effect	–
Almotriptan malate [Almotriptan malate (Axert)]	significant inhibition effect	–
Ibutilide fumarate	significant inhibition effect	–
